Patent US11160798B2, “Neuroprotective CB2 receptor agonists” (THE CLEVELAND CLINIC FOUNDATION, priority 2012, dated 2021)
Entries after “also recorded” stand apart in the source; their conditions may differ.

How the values were obtained:
rCB1 = rCB1 (Rattus norvegicus, UniProt P20272); conditions: cited from earlier work
CA1 neurons [1] = assay: Evoked EPSCs (basal glutamatergic strength) in hippocampal CA1 slices, whole-cell patch clamp; type: in vivo, rat
Experimental: Animals were divided into several groups (40-50 rats per group). The Aβ1-40 group received bilateral intracerebral microinjection of Aβ1-40 fibrils once and saline intraperitoneally (i.p.) daily for 14 days. The Aβ1-40+MDA7 group received bilateral intracerebral microinjection of Aβ1-40 fibrils once and 15 mg/kg MDA7 i.p. daily for 14 days. Other cohorts received smaller doses of MDA7 (5 mg/kg or 1.5 mg/kg) i.p. daily for 14 days to determine the dose-response characteristics for MDA7. In other groups, AM630 (a CB2 antagonist) 5 mg/kg i.p. was administered daily for 14 days either alone (Aβ1-40+AM630 group) or 15 min prior to MDA7 (15 mg/kg i.p.) administration (Aβ1-40+MDA7+AM630 group) to rats injected with β1-40 fibrils. […]
(§1) Whole-cell patch clamp recordings in hippocampal slices. […] The series resistance was optimally compensated by ≥70% and constantly monitored throughout the experiments. […] Excitatory postsynaptic currents (EPSCs) were recorded in the CA1 area in the presence of GABAA antagonist bicuculline (30 μM). The evoked EPSCs were filtered at 2 kHz, digitized at 10 kHz, and acquired and analyzed using Axograph X software. The amplitude of EPSCs was monitored for a baseline period of at least 15 min. […]

[2] = system: cognitive impairment induced by Aβ1-40; assay: Morris water maze test in rats microinjected with Aβ1-40 fibrils; type: in vivo, rat
Experimental: Animals and treatment protocol. All animal procedures were approved by the Animal Care and Use Committee of Cleveland Clinic. Animals were housed the Institutional Biological Rodent Unit on a 12/12 h light/dark cycle with water and food pellets available ad libitum. Adult male Sprague-Dawley (Charles River, Wilmington, Mass.) rats weighing 200-250 g were used, and all experiments were performed during the light cycle.
(§2) Animals were divided into several groups ([…]). The Aβ1-40 group received bilateral intracerebral microinjection of Aβ1-40 fibrils once and saline intraperitoneally (i.p.) daily for 14 days. The Aβ1-40+MDA7 group received bilateral intracerebral microinjection of Aβ1-40 fibrils once and 15 mg/kg MDA7 i.p. daily for 14 days. Other cohorts received smaller doses of MDA7 (5 mg/kg or 1.5 mg/kg) i.p. daily for 14 days to determine the dose-response characteristics for MDA7. In other groups, AM630 (a CB2 antagonist) 5 mg/kg i.p. was administered daily for 14 days either alone (Aβ1-40+AM630 group) or 15 min prior to MDA7 (15 mg/kg i.p.) administration (Aβ1-40+MDA7+AM630 group) to rats injected with β1-40 fibrils. MDA7 group and control group received bilateral intracerebral microinjection of artificial cerebrospinal fluid (130 mM NaCl, 2.6 mM KCl. 4.3 mM MgCl2 and 1.8 mM CaCl2) once and 15 mg/kg MDA7 or saline i.p. daily for 14 days, respectively. Intraperitoneal administration of AM630, MDA7 or saline started on the same day after intracerebral microinjection of Aβ1-40. All drugs were prepared coded. Decoding was performed at the end of all experiments.
Microinjection of amyloid fibrils into the hippocampal CA1 area. Rats were anesthetized with sodium pentobarbital (45 mg/kg i.p.) and restrained in a stereotaxic apparatus. Aβ1-40 fibrils were formed as described previously. Chacon, et al., Mol Psychiatry 9(10), 953-61 (2004), Aβ1-40 fibrils (10 μg/3 μl) or 3 μl of artificial cerebrospinal fluid were injected stereotaxically and bilaterally into each hippocampus (coordinates; Bregma −3.5 mm anteroposterior, ±2.0 mm mediolateral, and −3.0 mm dorsoventral) using a 10 μl Hamilton syringe with a 27 G stainless steel needle at a rate of 0.5 μl/min. This experimental model has been used for studying AD. Ahmed, et al., Neuroscience 169(3), 1296-306 (2010).
Morris water maze test. A cohort of rats (n=10 per group) was tested 15 days after surgery as described by Chacon et al. (ibid). Testing was conducted in all groups at the same time of the day. The experimental apparatus consisted of a circular pool (120 cm in diameter, 45 cm high). An invisible platform (15 cm in diameter, 35 cm high) was placed 1.5 cm below the surface of the water. The water temperature was kept at 24-28° C. The pool was located in a test room, and many clues external to the maze were visible from the pool, which could be used by the rats for spatial orientation. The position of the cues was kept constant throughout the task. Each rat underwent four trials per day for five days. During each trial (memory acquisition), the rats were placed randomly at one of four fixed starting points and were allowed to swim for 120 s or until they escaped from the water by reaching the platform. The platform was located in the same position throughout the test in the middle of one quadrant. The start location was moved to a different quadrant in each trial so that no single start location was used in consecutive trials. In each training session, the latency to escape to the hidden platform was recorded. After the rats reached the platform, they were allowed to rest there for 20 seconds, and they then were removed from the pool. An inter-trial interval of at least 4 minutes was used to ensure that each rat's performance was not impaired by fatigue. After completing four trials, the rats were removed from the pool, dried and returned to their home cage. […]

CA1 neurons [3] = assay: Long-term potentiation (LTP) in hippocampal CA1 slices; type: in vivo, rat; conditions: for average LTP: Aβ+MDA7 group (15 mg/kg i.p. 14 days), n=9
Experimental: as §2
Hippocampal slice preparation. Brain slices containing hippocampus were prepared. Brain slices used for electrophysiological recording were obtained from all rats (n=10-12 rats per group) that had been subjected to the Morris water maze test. All rats were anesthetized with pentobarbital and then euthanized by decapitation. […]
as §1

Chain of rCB1 (P20272 whole entry): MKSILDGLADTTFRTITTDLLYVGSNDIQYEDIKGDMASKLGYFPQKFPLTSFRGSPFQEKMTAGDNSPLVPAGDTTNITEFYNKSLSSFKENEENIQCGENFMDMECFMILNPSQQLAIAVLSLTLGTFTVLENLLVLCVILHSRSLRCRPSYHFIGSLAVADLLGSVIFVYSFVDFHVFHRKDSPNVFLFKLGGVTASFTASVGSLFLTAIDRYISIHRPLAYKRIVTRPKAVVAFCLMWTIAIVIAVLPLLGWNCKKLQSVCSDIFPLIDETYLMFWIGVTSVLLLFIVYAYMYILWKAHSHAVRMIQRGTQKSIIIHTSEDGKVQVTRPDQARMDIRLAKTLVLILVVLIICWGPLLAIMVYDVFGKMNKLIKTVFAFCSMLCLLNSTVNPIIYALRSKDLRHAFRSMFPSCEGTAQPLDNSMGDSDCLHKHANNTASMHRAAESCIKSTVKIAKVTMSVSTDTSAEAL

CC1(Cc2ccccc2)COc2cc(C(=O)N3CCCCC3)ccc21 (centres unmarked) [MDA7, 3-benzyl-3-methyl-2,3-dihydrobenzofuran-6-carboxylic acid-piperidine amide]
EC50 at rCB1 (rCB1): not active | amplitude of evoked EPSCs in CA1 neurons (CA1 neurons [1]; Aβ1-40-injected rats, 15 mg/kg i.p. for 14 days, all three stimulus intensities): restored | basal glutamatergic strength, treatment alone (CA1 neurons [1]; MDA7 group (no Aβ1-40) vs control group): not different | escape latency / memory enhancement in the Morris water maze test ([2]; Aβ1-40 fibril-injected rats, 1.5 mg/kg i.p. daily for 14 days): did not result in any significant memory enhancement | escape latency / memory enhancement in the Morris water maze test ([2]; Aβ1-40 fibril-injected rats, 5 mg/kg i.p. daily for 14 days): limited only to days 3 and 5 | escape latency in the Morris water maze test ([2]; Aβ1-40 fibril-injected rats, 15 mg/kg i.p. daily for 14 days, vs i.p. saline, days 3-5): significantly shorter escape latency | probe trial, time spent in the target quadrant ([2]; Aβ1-40 fibril-injected rats, 15 mg/kg i.p. for 14 days, vs i.p. saline, day 6, 15 mg/kg): spent the longest time in the target quadrant; also recorded: significantly longer time in the target quadrant | escape latency, treatment alone ([2]; rats microinjected with artificial cerebrospinal fluid, 15 mg/kg for 14 days vs saline i.p.): no significant difference | average LTP (CA1 neurons [3]; 30 min after induction): 214.5±23.6% | average LTP (CA1 neurons [3]; 60 min after induction): 195.7±21.8% | induction of LTP, treatment alone (CA1 neurons [3]; hippocampal slices of control rats (no Aβ1-40)): failed to significantly affect
